In data set [1] the target is T1, human recombinant CRF1 (Homo sapiens, UniProt P34998).
T1 construct: expressed in transfected cells
T1 sequence (P34998 24-415): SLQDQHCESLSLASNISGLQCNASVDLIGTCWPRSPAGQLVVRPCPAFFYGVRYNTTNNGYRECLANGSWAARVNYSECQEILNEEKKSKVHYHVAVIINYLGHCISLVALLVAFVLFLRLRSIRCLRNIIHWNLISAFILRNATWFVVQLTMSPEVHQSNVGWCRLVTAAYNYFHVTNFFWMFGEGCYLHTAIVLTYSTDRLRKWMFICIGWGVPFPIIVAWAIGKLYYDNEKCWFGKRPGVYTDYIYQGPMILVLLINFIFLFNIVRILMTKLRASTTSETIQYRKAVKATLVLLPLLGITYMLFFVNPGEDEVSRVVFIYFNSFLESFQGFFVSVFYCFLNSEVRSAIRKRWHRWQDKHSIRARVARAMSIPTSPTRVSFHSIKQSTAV
Description: CRF-stimulated cyclic AMP accumulation in CHO cells expressing human recombinant CRF1 (antagonism, KB from curve shift). The data set is classed as cell-based. The conditions noted are these: cAMP, shift of CRF curve with antagonist 10 μM. On the procedure:
In particular the agents of the invention bind to CRF receptors.
Chinese hamster ovary (CHO) cells expressing human recombinant CRF1 (Chen et al., Proc Natl Acad Sci USA 90, 8967-8971, 1993) are propagated in Dulbecco's modified Eagle medium supplemented with 10% foetal calf serum, non-essential aminoacids, 100 U/ml penicillin, 100 mg/l streptomycin and 1 g/l geneticin (G418). For cyclic AMP determinations, cells are grown to confluence in 24-multiwell plates. Stimulation of cyclic AMP accumulation by CRF (human/rat form) is measured in intact cells, using the [^3H]adenine labelling technique, as described previously (Schoeffter et al., Neuropharmacology 36, 429-437, 1997). Concentration-response curves for CRF are constructed in the presence of putative antagonists (10 μM) or vehicle (dimethyl sulfoxide 1% vol). KB values are calculated from the rightward shifts of the control curve, according to the formula: KB=[antagonist, M]/concentration-ratio-1), where the concentration-ratio designates the ratio of CRF EC50 value in the presence/CRF EC50 value in the absence, of antagonist [Furchgott, In: catecholamines (edited by Blaschko H and Muscholl E) pp. 283-335. Springer, Berlin, 1972].

The test system of data set [2] is mouse. Description: mouse elevated plus-maze (anxiolytic activity). The class given is in vivo. The source says:
For example the anxiolytic activity of the agents of the invention could be confirmed in the mouse elevated plus-maze [see for example Rodgers R. J., Behavioural Pharmacology 8: 477-496 (1997) where the relevance of the elevated plus-maze is discussed on p. 486; for the method, see Rodgers R. J. et al. Ethology and Psychopharmacology (Eds S J Cooper and C A Hendrie), pp 9-44 (1994), J. Wiley, Chichester]. In this test, the agents of the invention show anxiolytic-like effects on administration of 0.1 to 30 mg/kg p.o.

Each structure is given as a SMILES string. Counter-ions that a name gives are not always drawn.

The record followed here is US6756367B2, “Benzo-oxadiazoles, -thiadiazoles and -1,4-diazines, pharmaceutical compositions containing them and a process for preparing them” (Novartis AG, priority 1998, dated 2004).

Broadly, the melting point is the temperature of the solid-liquid transition. Turning to `CCC(CC)Nc1nc(C)nc(Nc2c(C)cc(C)c3nsnc23)c1C`, the melting point fell in the range of 113 to 115 °C.

Turning to `CCC(C)Nc1nc(C)nc(Nc2c(C)cc(C)c3nsnc23)c1C` (centres unmarked), the melting point is 88 °C.

`CCCN(CCC)c1nc(C)nc(Nc2c(C)cc(C)c3nsnc23)c1C#N` showed a melting point of 171 to 173 °C.

On to `CCN(C)c1nc(C)nc(Nc2c(Cl)cc(Cl)c3nsnc23)c1C`, for which the melting point came out at 116 °C.

For the compound `CCCCN(C)c1nc(C)nc(Nc2c(Cl)cc(Cl)c3nsnc23)c1C`, the melting point was determined as 105 °C.

Take `CCCN(CC)c1nc(C)nc(Nc2c(Cl)cc(Cl)c3nsnc23)c1C`: the melting point stood at 107 °C.

With `CCCCN(CC)c1nc(C)nc(Nc2c(Cl)cc(Cl)c3nsnc23)c1C`, the melting point came to 101 °C.

Compound `CCCN(CCC)c1nc(C)nc(Nc2c(Cl)cc(Cl)c3nsnc23)c1C` yielded a melting point of 118 to 121 °C.

In the case of `CCCCN(CCCC)c1nc(C)nc(Nc2c(Cl)cc(Cl)c3nsnc23)c1C`, the melting point was found to be 56 °C.

The compound `C=CCN(CC=C)c1nc(C)nc(Nc2c(Cl)cc(Cl)c3nsnc23)c1C` came in with a melting point of 112 °C.

Take `Cc1nc(NCc2ccccc2)c(C)c(Nc2c(Cl)cc(Cl)c3nsnc23)n1`: the melting point came to 126 °C.

The compound `Cc1nc(Nc2c(Cl)cc(Cl)c3nsnc23)c(C)c(N(C)Cc2ccccc2)n1` registered a melting point of 138 °C.

On to `CCCN(CCC)c1nc(C)nc(Nc2c(C)cc(Cl)c3nsnc23)c1C`, for which the melting point was in the range of 102 to 104 °C.

Turning to `CCCN(CCC)c1nc(C)nc(Nc2c(Cl)cc(C)c3nsnc23)c1C`, the melting point is 112 to 114 °C.

`CCCN(CCC)c1nc(C)nc(Nc2c(Cl)ccc3nsnc23)c1C` returned a melting point of 77 to 80 °C.

In turn, `CCCN(CCC)c1nc(C)nc(Nc2c(C)ccc3nsnc23)c1C` showed a melting point of 95 to 98 °C.

Turning to `CCCN(CCC)c1nc(C)nc(Nc2c(C)cc(C)c3nccnc23)c1C`, the melting point was in the range of 94 to 96 °C.

`CCCN(CCC)c1nc(C)nc(Nc2c(Cl)cc(Cl)c3nccnc23)c1C` showed a melting point of 126 to 128 °C.

As to `CCCN(CCC)c1nc(C)nc(Nc2c(Cl)cc(C)c3nccnc23)c1C`, the melting point fell in the range of 107 to 109 °C.

`CCCN(CC)c1nc(C)nc(Nc2c(Cl)cc(Cl)c3nccnc23)c1C` had a melting point of 120 to 123 °C.

As to `CCCN(CC)c1nc(C)nc(Nc2c(C)cc(C)c3nccnc23)c1C`, the melting point lay in the range of 109 to 110 °C.

As to `CCCCN(CC)c1nc(C)nc(Nc2c(Cl)cc(Cl)c3nccnc23)c1C`, the melting point fell in the range of 117 to 119 °C.

The compound `CCCCN(CC)c1nc(C)nc(Nc2c(C)cc(C)c3nccnc23)c1C` showed a melting point of 106 to 107 °C.

Compound `CCCN(CCC)c1nc(C)nc(Nc2c(C)cc(C)c3nsnc23)c1Cl` registered a melting point of 106 to 108 °C.

For the compound `CCCN(CC)c1nc(C)nc(Nc2c(C)cc(C)c3nsnc23)c1C`, the melting point lay in the range of 101 to 102 °C.

In the case of `CCCCN(CC)c1nc(C)nc(Nc2c(C)cc(C)c3nsnc23)c1C`, the melting point fell in the range of 83 to 84 °C.

`CCN(CC)c1nc(C)nc(Nc2c(Cl)cc(Cl)c3nsnc23)c1C` (as salt: fumarate) showed a melting point of 189 to 193 °C.

The compound `CCCN(CCC)c1cc(Nc2c(C)cc(C)c3nsnc23)nc(C)n1` (as salt: fumarate) came in with a melting point of 177 to 179 °C.

Usually Kb stands for the equilibrium dissociation constant of an antagonist, usually derived from a functional assay. `CCCN(CCC)c1nc(C)nc(Nc2c(C)cc(C)c3nsnc23)c1C` [Example 1, 5,7-dimethyl-4-[2,5-dimethyl-6-(di-n-propyl)-amino-pyrimidin-4-yl]-amino-2,1,3-benzothiadiazole]: the Kb in data set [1] came out at 36 nM. In data set [2] (0.1 to 10 mg/kg p.o., in contrast to the standard chlordiazepoxide), the “parameters related to motor stimulation in the elevated plus-maze” value is reported as “not affected”. Further, the “effect on anxiety-related behavioural parameters in the elevated plus-maze” value in data set [2] (doses of 0.1 to 10 mg/kg p.o.) is “significantly affect the anxiety-related behavioural parameters”. Also, the “dose of maximum effect on anxiety-related behavioural parameters” value in data set [2] (p.o., elevated plus-maze) is 3 mg/kg.
